Experimental findings from PubChem BioAssay AID608 (Sanford-Burnham Center for Chemical Genomics, 2007) are described below.

The source made the active and inactive calls. The rule behind the calls is not given here.

In this test the target is Peptidyl-prolyl cis-trans isomerase FKBP1A (Homo sapiens) (UniProt P62942). Nature of the test: small-molecule binding to FKBP12 – biophysical, NMR detection (AID 608). Particulars: purified FKBP12.
Peptidyl-prolyl cis-trans isomerase FKBP1A (Homo sapiens), sequence (P62942 whole entry, looked up): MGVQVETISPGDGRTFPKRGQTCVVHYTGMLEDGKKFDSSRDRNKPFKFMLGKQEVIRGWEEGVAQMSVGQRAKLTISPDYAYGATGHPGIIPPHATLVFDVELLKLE
A word on the Kd: it is a measure of binding affinity in units of concentration. For `COc1cc(OC)c2ccc(=O)oc2c1`, the Kd was > 4 mM (inactive). Then `NC(=O)c1sc2ccccc2c1Cl`, with > 4 mM (inactive).

Take `CN(c1ccccc1C(=O)N1CCOCC1)S(C)(=O)=O`: the Kd is > 4 mM (inactive). Then `NCC(N)C(=O)c1ccccc1` (configuration not stated), with > 4 mM (inactive).

For `CC(C)(OC(=O)c1ccccc1)[C@@H]1Cc2cc3ccc(=O)oc3cc2O1`, the Kd was > 4 mM (inactive). Then `CC(=O)CS(=O)(=O)c1ccccc1`, with > 4 mM (inactive); and `CC(=O)NCC1OCCc2ccccc21` (configuration not stated), with > 4 mM (inactive).

As to `CN(C(=O)NC1CCS(=O)(=O)C1)C1CCCCC1` (configuration not stated), the Kd was > 4 mM (inactive).

As to `OCC1CCN(c2ncccn2)CC1`, the Kd was > 4 mM (inactive). The same measure for `Brc1cccc(-c2nnco2)c1`: > 4 mM (inactive); for `Cc1nc2nc(-c3ccco3)nn2c(C)c1Cl`: > 4 mM (inactive). For the compound `COc1ccc(C(C)=O)c(O)c1`, the Kd was > 4 mM (inactive). Then `OC[C@@H](O)[C@@H](O[C@@H]1O[C@H](CO)[C@@H](O)[C@H](O)[C@H]1O)[C@H](O)[C@@H](O)CO`, with > 4 mM (inactive); and `CNc1nnc(CSc2nc(C)cc(C)n2)s1`, with > 4 mM (inactive).

Consider `CC(=O)C1CCC2C3CCC4C[C@H](O)CCC4(C)C3C[C@H](O)C12C` (some centres not stated), for which the Kd is > 4 mM (inactive). The same measure for `O=C(O)c1ccc(-n2cccc2)cc1`: > 4 mM (inactive). The same measure for `Cn1cnc2nc3n(c2c1=O)CCC3`: > 4 mM (inactive). Then `O=C(c1ccccc1)N1CCNCC1`, with > 4 mM (inactive). Turning to `CN1CCC(NC(=O)C2CCCO2)CC1` (configuration not stated), the Kd is > 4 mM (inactive).

In the case of `O=C(Nc1ccc(OCC(=O)N2CCOCC2)cc1)c1ccccc1Cl`, the Kd was > 4 mM (inactive). In the case of `COc1cc2nc(N3CCNCC3)nc(N)c2cc1OC`, the Kd was > 4 mM (inactive). On to `CC1(C)N=C2C(=N)C=CC=C2N1O`, for which the Kd is > 4 mM (inactive). Then `Cc1ccccc1CSc1nncn1N`, with > 4 mM (inactive).

For `CC(=O)Nc1ccc(S(=O)(=O)Nc2cc(C)on2)cc1`, the Kd is > 4 mM (inactive). The same measure for `CN(C)S(=O)(=O)NCc1ccc2c(c1)OCO2`: > 4 mM (inactive). Turning to `Cc1ccc(C)n1-c1ccc(C(=O)N2CCOCC2)cc1`, the Kd is > 4 mM (inactive).

`NC1=NC(=O)/C(=C\c2ccco2)S1`: the Kd is > 4 mM (inactive). Then `CS(C)=C1C(=O)NC(=O)N(Cc2ccc(F)cc2)C1=O`, with > 4 mM (inactive); and `O=c1c2ccccc2[nH]c2ncccc12`, with > 4 mM (inactive). The same measure for `CCOC(=O)c1c(C)nc2c(C#N)cnn2c1C`: > 4 mM (inactive); for `COc1ccc(-c2cc(=O)c3c(O)cc(O[C@H]4O[C@H](CO[C@@H]5O[C@@H](C)[C@H](O)[C@@H](O)[C@H]5O)[C@@H](O)[C@H](O)[C@H]4O)cc3o2)cc1`: > 4 mM (inactive). The same measure for `O=C(O)CCC1NCC2CC1CN1CCCCC21` (configuration not stated): > 4 mM (inactive); for `COC1=CC23CCCN2CCc2cc4c(cc2C3C1O)OCO4` (configuration not stated): > 4 mM (inactive). For `CC1Oc2ccccc2OC1C(=O)N1CCOCC1` (configuration not stated), the Kd was > 4 mM (inactive).

For the compound `NC1=C(c2ccccc2)C(=O)c2ccccc21`, the Kd is > 4 mM (inactive).

Take `Nc1cccc(-c2cnco2)c1`: the Kd was > 4 mM (inactive). Regarding `CN(C(N)=O)C1(C)CCS(=O)(=O)C1` (configuration not stated), the Kd was > 4 mM (inactive). The same measure for `CCOc1nc(C)ccc1-c1noc(-c2ccncc2)n1`: > 4 mM (inactive).

`O=C(O)C1COc2ccccc2O1` (configuration not stated): the Kd is > 4 mM (inactive). Then `O=C(Nc1nccs1)c1ccc(=O)[nH]n1`, with > 4 mM (inactive); and `Cc1ccc(=O)[nH]c1`, with > 4 mM (inactive).

In the case of `N#CCCn1c(=O)oc2ccccc21`, the Kd was > 4 mM (inactive).
